Here are results for 1 molecule from US9913831B2, “Methods and compositions for treating nephrogenic diabetes insipidus” (UNIVERSITY OF UTAH RESEARCH FOUNDATION, priority 2011, dated 2018).

The structures appear in SMILES notation.

One data set relates to rats. The note with it: upto 4 weeks; cited from earlier work.
For data set [1] the following is noted: rats, lithium diet with clopidogrel vs lithium alone, ICPMS. The method, then: Microhematocrit was determined by centrifuging free-flowing blood collected in heparinized capillary tubes in a microhematocrit centrifuge (Clay Adams, Parsippany, N.J., USA). Urinary excretion of AVP was quantified by a commercial ELISA kit (Enzo Life Sciences, Farmingdale, N.Y., USA). […] Based on serum and urine analysis, electrolyte-free clearance [CH20(e)] was computed using the formula CH20(e)=V((1−UNa+UK)/PNa), where V=urine volume, UNa and UK are urine Na and K, and PNa is plasma Na, respectively (Schrier 2006). Lithium levels in inner medullary tissue homogenates were assayed by Inductively Coupled Plasma-Mass Spectrometry (ICPMS) by Exova (Santa Fe Springs, Calif., USA), and were normalized to their respective protein contents.

Another data set relates to AQP1 water channel. Particulars: normal rats, clopidogrel 20 mg/kg bw/day 13 days. The method, then: (§1) Tissue samples were prepared and immnoblotted for semi-quantitative determination of protein abundances of P2Y12 receptor, and β-actin by the methods described previously (Zhang et al, ibid, 2008, 2009, 2010). Whole tissue homogenates were prepared in the presence of protease inhibitors, and the concentrations of proteins in the homogenates were determined, and solubilized in Laemmli buffer. Then the solubilized proteins were size fractionated on 12% SDS-polyacrylamide gels. Quality of tissue sample preparation and equality of protein loading were verified by staining parallel-run loading gels with Coomassie-blue (Gelcode Blue, Pierce Endogen, Rockford, Ill.). The size fractionated proteins were electrotransferred to nitrocellulose membranes, and blocked with buffer containing non-fat milk. Differences in protein loading were corrected by normalizing the band densities of the target proteins to that of β-actin (polyclonal antibody from Biolegend, San Diego, Calif., USA). After washing, the blocked membranes were incubated with rabbit polyclonal antibodies to either P2Y12 receptor (AnaSpec, Fremont, Calif.) or aquaporin-2 (AQP2; Zhang et al, ibid, 2008) or AQP1 (commercial source) or β-actin (Biolegend, San Diego, Calif.). Non-specific binding was prevented by incubation of the membranes with goat serum. Generation and characterization of AQP2 antibody (GN-762) was described previously (Kishore et al, 2000; Zhang et al, 2008). When peptide block was tested, prior to its use on the membranes the P2Y12 receptor antibody was pre-adsorbed by incubation with the blocking peptide as per the instructions of the supplier (AnaSpec, Fremont, Calif.). After washing off the primary antibodies, the nitrocellulose membranes were incubated with a peroxidase-conjugated secondary antibody to rabbit IgG (Dako North America, Carpinteria, Calif.). Chemiluminescence reaction was used to detect sites of antigen-antibody reactions (SuperSignal Substrate; Pierce Endogen, Rockford, Ill.), and captured on an X-ray film. Images were digitized and band densities were quantified by using Un-San-It software (Silk Scientific, Orem, Utah). The band densities of AQP2 were normalized by the band densities of β-actin. Mean values of relative band densities thus obtained for P2Y12 receptor were expressed as percent of the mean values obtained in the control group of animals.
(§2) Clopidogrel bisulfate was given orally to a group of Sprague-Dawley rats (n=4) for 13 days by dissolving powdered Plavix® tablets (75 mg base; Bristol-Myers Squibb/Sanofi, Bridgeport, N.J.) in drinking water, so that the rats consumed at least 20 mg of clopidogrel bisulfate base per kg body weight per day. The concentration of the drug in the drinking water was adjusted daily based on the water consumption of the rats the previous day. Another group of rats (n=4) was given plain water and this group served as controls.

For another data set, the system named is P2Y12 receptor. The note with it: normal rats, clopidogrel 20 mg/kg bw/day 13 days. The method, then:
as §1, §2

A further data set concerns Brattleboro mutant rats. The note with it: Brattleboro rats lacking AVP, clopidogrel 40 mg/kg bw/day in drinking water 2 weeks. The method, then: Animal experiments: Male Sprague-Dawley rats were purchased from Charles River (Wilmington, Mass., USA), and Brattleboro mutant rats that lack AVP (HsdBlu:BRAT-Avp^di) were obtained from the Rat Resource & Research Center (RRRC), University of Missouri, Columbia, Mo., USA. Mice (B6D2 genetic background) were bred in-house. […] Lithium-added chow (40 mmol Li/kg chow) was custom prepared (MP Biomedicals, Aurora, Ohio, USA). Clopidogrel bisulfate was administered orally by powdering and dissolving Plavix® tablets (Bristol-Myers Squibb, New York, N.Y., USA) in drinking water. The concentration of the drug in the drinking water was adjusted daily based on the water consumption of the animals the previous day. […]
Blood, urine and tissue analysis: Osmolalities of clear urine samples were measured by vapor pressure method (Wescor, Logan, Utah, USA). Microhematocrit was determined by centrifuging free-flowing blood collected in heparinized capillary tubes in a microhematocrit centrifuge (Clay Adams, Parsippany, N.J., USA). Urinary excretion of AVP was quantified by a commercial ELISA kit (Enzo Life Sciences, Farmingdale, N.Y., USA). Total nitrate/nitrite contents of urine samples were determined by a commercial kit (Cayman Chemical, Ann Arbor, Mich.).Na, Li and K levels in serum and/or urine were determined on EasyElectrolyte® (Medica Corp., Bedford, Mass., USA). […]

Turning to `COC(=O)[C@H](c1ccccc1Cl)N1CCc2sccc2C1` [clopidogrel], the “doses free from toxicity” value in the data set with rats was at most 165 mg/kg bw/day. Also, the “accumulation of lithium in the inner medulla” value in data set [1] is on record as “no effect”. Further, in the data set on AQP1 water channel, the “protein abundance of AQP1 water channel in the kidney” value was “did not appear to alter”. The “protein abundance of P2Y12 receptor in the kidney” value in the data set with P2Y12 receptor is on record as “did not appear to alter”. Further, the urinary concentrating ability entry in the data set on Brattleboro mutant rats is given as “did not increase”.
